According to patent publication US7582803B2 (Amgen Inc., priority 2005, dated 2009):
pEC50: −log10 of the molar value.

The molecules below were run against T1, human GPR40 (Homo sapiens, UniProt O14842) (assay: Cell-based aequorin assay). Details: CHO cells stably transfected with GPR40 and aequorin; 0.01% HSA; aequorin luminescence; read-out: Relative EC50.
T1 construct: expressed in transfected cells; host or cells: CHO cells
Description: Cell-based aequorin assays were employed to characterize the modulatory activity of compounds on the GPR40 signaling pathway. In an exemplary assay, CHO cells were stably transfected with both GPR40 and Aequorin (Euroscreen). Cells were detached from the tissue culture dish with 2 mL of trypsin (0.25% (w/v)). Trypsinization was halted with 28 mL of Hanks Buffered Salt Solution containing 20 mM Hepes (H/HBSS) and 0.01% fatty acid-free human serum albumin (HSA). Coelantrazine is added to 1 ug/mL, and the cells were incubated for 2 hours at room temperature. Compounds were dissolved in DMSO for preparation of 10 mM stock solutions. Compounds were diluted in H/HBSS containing 0.01% HSA. Serial dilutions of the test compounds were prepared to determine dose response.
Aequorin luminescence measurements were made using an EG&G Berthold 96-well luminometer, and the response was measured over a 20 second interval after cells and compounds were mixed. The maximum relative light units was plotted to determine dose response. The EC50 (effective concentration to reach 50% maximal response) was determined from the dose response plot.
Table 1 presents representative data (EC50 values) obtained for exemplary compounds of the invention for the relative activation of human GPR40. […]

T1 sequence (O14842 whole entry): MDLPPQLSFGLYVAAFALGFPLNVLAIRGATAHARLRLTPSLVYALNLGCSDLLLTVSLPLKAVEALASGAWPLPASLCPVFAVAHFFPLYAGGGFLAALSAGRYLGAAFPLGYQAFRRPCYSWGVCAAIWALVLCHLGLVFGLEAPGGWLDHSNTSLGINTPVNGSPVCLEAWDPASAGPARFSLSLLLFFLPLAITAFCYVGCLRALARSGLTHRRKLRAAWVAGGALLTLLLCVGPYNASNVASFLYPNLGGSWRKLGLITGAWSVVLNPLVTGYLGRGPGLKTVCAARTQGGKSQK

Row | Structure (SMILES) | pEC50
1 | CC#C[C@@H](CC(=O)O)c1ccc(OC2CCc3cc(-c4cccs4)ccc32)cc1 (stereo partly drawn) [Example 4, (3S)-3-[4-(5-Thiophen-2-yl-indan-1-yloxy)-phenyl]-hex-4-ynoic acid] | 7.00 to 8.00
2 | CC#C[C@@H](CC(=O)O)c1ccc(OC2CCc3c(-c4cccc(OCC)c4)cccc32)cc1 (stereo partly drawn) [Example 9, (3S)-3-{4-[4-(3-Ethoxy-phenyl)-indan-1-yloxy]-phenyl}-hex-4-ynoic acid] | 5.00 to 6.00
3 | CC#C[C@@H](CC(=O)O)c1ccc(OC2c3ccccc3CC2C)cc1 (mixture of isomers) [Example 21, (3S)-3-[4-(2-Methyl-indan-1-yloxy)-phenyl]-hex-4-ynoic acid] | 7.00 to 8.00
4 | CC#C[C@@H](CC(=O)O)c1ccc(OC2CCc3ccccc32)cc1 (stereo partly drawn) [Example 46, (3S)-3-(4-(2,3-Dihydro-1H-inden-1-yloxy)phenyl)hex-4-ynoic acid] | 7.00 to 8.00
5 | Cn1cncc1[C@@H](CC(=O)O)c1ccc(OCc2ccc3c(c2)C(C)(C)CCC3(C)C)cc1 [Example 74, (S)-3-(1-methyl-1H-imidazol-5-yl)-3-(4-((5,5,8,8-tetramethyl-5,6,7,8-tetrahydronaphthalen-2-yl)methoxy)phenyl)propanoic acid] | 6.00 to 7.00
6 | Cn1ccnc1[C@@H](CC(=O)O)c1ccc(OCc2ccc3c(c2)C(C)(C)CCC3(C)C)cc1 [Example 71, (S)-3-(1-Methyl-1H-imidazol-2-yl)-3-[4-(5,5,8,8-tetramethyl-5,6,7,8-tetrahydro-naphthalen-2-ylmethoxy)-phenyl]-propionic acid] | 6.00 to 7.00
7 | Cn1cnnc1[C@H](CC(=O)O)c1ccc(OCc2ccc3c(c2)C(C)(C)CCC3(C)C)cc1 [Example 83] | < 5.00
8 | O=C(O)CC(c1ccc(OC2Cc3ccccc3C2)cc1)c1ccc(F)cc1F (racemic) [Example 38, (+/−)3-(2,4-Difluorophenyl)-3-(4-(2,3-dihydro-1H-inden-2-yloxy)phenyl)propanoic acid] | 6.00 to 7.00
9 | Cc1cnc(C(CC(=O)O)c2ccc(OC3Cc4ccccc4C3)cc2)o1 (centres unmarked) [Example 51, 3-(4-(2,3-Dihydro-1H-inden-2-yloxy)phenyl)-3-(5-methyloxazol-2-yl)propanoic acid] | 6.00 to 7.00
10 | Cc1cnc(C(CC(=O)O)c2ccc(OC3CCc4cc(Cl)ccc43)cc2)o1 (racemic) [Example 34, (+/−)-3-(4-(5-Chloro-2,3-dihydro-1H-inden-1-yloxy)phenyl)-3-(5-methyloxazol-2-yl)propanoic acid] | 5.00 to 6.00
11 | CC#CC(CC(=O)O)c1ccc(OC2CCC(c3ccccc3)CC2)cc1 [Example 29, (R,S)-3-(4-(4-phenylcyclohexyloxy)phenyl)hex-4-ynoic acid] | 6.00 to 7.00
12 | CC#C[C@@H](CC(=O)O)c1ccc(OC2CCc3c(-c4ccc(C(F)(F)F)cc4)cccc32)cc1 (some centres unmarked) [Example 7] | 7.00 to 8.00
13 | CC#C[C@H](CC(=O)O)c1ccc(OC2CCc3cc(-c4cccc(OC(F)(F)F)c4)ccc32)cc1 (stereo partly drawn) [Example 63, (3R)-3-(4-(5-(3-(trifluoromethoxy)phenyl)-2,3-dihydro-1H-inden-1-yloxy)phenyl)hex-4-ynoic acid] | < 5.00
14 | CC#C[C@@H](CC(=O)O)c1ccc(OCCC2CCCCC2)cc1 [Example 69, (S)-3-(4-(2-cyclohexylethoxy)phenyl)hex-4-ynoic acid] | 6.00 to 7.00
15 | CC#C[C@@H](CC(=O)O)c1ccc(OC2CCc3ccc(-c4cc(C)ccc4OCCCC)cc32)cc1 (stereo partly drawn) [Example 12, (3S)-3-{4-[6-(2-Butoxy-5-methyl-phenyl)-indan-1-yloxy]-phenyl}-hex-4-ynoic acid] | 7.00 to 8.00
16 | CC#C[C@@H](CC(=O)O)c1ccc(OC2CCc3c(OC)ccc(OC)c32)cc1 (stereo partly drawn) [Example 20, (3S)-3-[4-(4,7-Dimethoxy-indan-1-yloxy)-phenyl]-hex-4-ynoic acid] | 6.00 to 7.00
17 | CC1(C)CCC(C)(C)c2cc(COc3ccc([C@H](CC(=O)O)c4ncco4)cc3)ccc21 [Example 82, (S)-3-Oxazol-2-yl-3-[4-(5,5,8,8-tetramethyl-5,6,7,8-tetrahydro-naphthalen-2-ylmethoxy)-phenyl]-propionic acid] | 7.00 to 8.00

Row | Structure (SMILES) | pEC50
18 | O=C(O)CC1CCCc2cc(OC3Cc4ccccc4C3)ccc21 (racemic) [Example 53, (R/S)-2-(6-(2,3-Dihydro-1H-inden-2-yloxy)-1,2,3,4-tetrahydronaphthalen-1-yl)acetic acid] | 6.00 to 7.00
19 | COc1ccc(F)c(-c2ccc3c(c2)CCC3Oc2ccc([C@@H](C=C(C)C)CC(=O)O)cc2)c1 (some centres unmarked) [Example 57] | 6.00 to 7.00
20 | CC#C[C@@H](CC(=O)O)c1ccc(OC2CCc3cc(Br)ccc32)cc1 (stereo partly drawn) [Example 2, (3S)-3-[4-(5-Bromo-indan-1-yloxy)-phenyl]-hex-4-ynoic acid] | 7.00 to 8.00
21 | CC#C[C@@H](CC(=O)O)c1ccc(O[C@H]2CCc3cc(Br)ccc32)cc1 [Example 45, (S)-3-(4-((S)-5-bromo-2,3-dihydro-1H-inden-1-yloxy)phenyl)hex-4-ynoic acid] | 7.00 to 8.00
22 | CC#C[C@@H](CC(=O)O)c1ccc(OC2Cc3ccccc3C2)cc1 [Example 27, (3S)-3-[4-(Indan-2-yloxy)-phenyl]-hex-4-ynoic acid] | 7.00 to 8.00
23 | CC#C[C@H](CC(=O)O)c1ccc(OC2CCc3cc(-c4ccc5c(c4)OCO5)ccc32)cc1 (stereo partly drawn) [Example 60, (3R)-3-(4-(5-(Benzo[d][1,3]dioxol-5-yl)-2,3-dihydro-1H-inden-1-yloxy)phenyl)hex-4-ynoic acid] | < 5.00
24 | Cn1ccnc1[C@@H](CC(=O)O)c1ccc(OC2CCc3cc(Cl)ccc32)cc1 (stereo partly drawn) [Example 58, (3S)-3-(4-(5-Chloro-2,3-dihydro-1H-inden-1-yloxy)phenyl)-3-(1-methyl-1H-imidazol-2-yl)propanoic acid] | 5.00 to 6.00
25 | CC1(C)CCC(C)(C)c2cc(COc3ccc([C@@H](CC(=O)O)c4ccc(F)cc4)cc3)ccc21 [Example 90, (R)-3-(4-Fluorophenyl)-3-(4-((5,5,8,8-tetramethyl-5,6,7,8-tetrahydronaphthalen-2-yl)methoxy)phenyl)propanoic acid] | 5.00 to 6.00
26 | O=C(O)CC(c1ccc(OC2Cc3ccccc3C2)cc1)c1cc(F)cc(F)c1 (racemic) [Example 36, (+/−)3-(3,5-Difluorophenyl)-3-(4-(2,3-dihydro-1H-inden-2-yloxy)phenyl)propanoic acid] | 6.00 to 7.00
27 | CC1(C)CCC(C)(C)c2cc(COc3ccc(C(CC(=O)O)C4=NOCC4)cc3)ccc21 (centres unmarked) [Example 85, 3-(4,5-Dihydroisoxazol-3-yl)-3-(4-((5,5,8,8-tetramethyl-5,6,7,8-tetrahydronaphthalen-2-yl)methoxy)phenyl)propanoic acid] | 6.00 to 7.00
28 | C[C@H](Oc1ccc([C@H](CC(=O)O)c2nccn2C)cc1)c1ccc2c(c1)C(C)(C)CCC2(C)C [Example 87, (3S)-3-(1-Methyl-1H-imidazol-2-yl)-3-(4-(1-(5,5,8,8-tetramethyl-5,6,7,8-tetrahydronaphthalen-2-yl)ethoxy)phenyl)propanoic acid] | < 5.00
29 | O=C(O)CC(c1ccc(OC2CCc3cc(Cl)ccc32)cc1)c1ncco1 (racemic) [Example 33, (+/−)-3-(4-(5-Chloro-2,3-dihydro-1H-inden-1-yloxy)phenyl)-3-(oxazol-2-yl)propanoic acid] | 5.00 to 6.00
30 | CC#C[C@@H](CC(=O)O)c1ccc(OC2CCc3c(C)cccc32)cc1 (stereo partly drawn) [Example 16, (3S) 3-[4-(4-Methyl-indan-1-yloxy)-phenyl]-hex-4-ynoic acid] | 7.00 to 8.00
31 | CC#C[C@@H](CC(=O)O)c1ccc(OC2CCc3c(Br)cccc32)cc1 (stereo partly drawn) [Example 5, (3S)-3-[4-(4-Bromo-indan-1-yloxy)-phenyl]-hex-4-ynoic acid] | 7.00 to 8.00
32 | Cn1ccnc1[C@@H](CC(=O)O)c1ccc(OCc2ccc3c(c2)C(C)(C)CCC3)cc1 [Example 86, (S)-3-(4-((8,8-Dimethyl-5,6,7,8-tetrahydronaphthalen-2-yl)methoxy)phenyl)-3-(1-methyl-1H-imidazol-2-yl)propanoic acid] | 6.00 to 7.00
33 | CC#C[C@@H](CC(=O)O)c1ccc(OCCC2CCCC2)cc1 [Example 70, (S)-3-(4-(2-cyclopentylethoxy)phenyl)hex-4-ynoic acid] | 6.00 to 7.00

These molecules were tested on islet cells (assay: Insulin secretion assay, human islet cells). Details: KRBH with 11.2 mM glucose, insulin by SPA, read-out: EC50, stimulation of insulin secretion from islet cells.
Type: cell-based
Description: Human islets were isolated from cadaveric donors. Islets were treated with trypsin (0.25% (w/v) and cells were seeded in 96-well plates containing 3,000 cells per well. Cells were cultured in Roswell Park Memorial Institute (RMPI) media containing 10% fetal bovine serum.
For determination of insulin secretion, media was removed from islet cells and replaced with Krebs-Ringer bicarbonate buffer containing 10 mM HEPES (KRBH) and 2 mM glucose. After one hour incubation, media was replaced with KRBH containing 11.2 mM glucose and test compounds. Insulin released into the medium from the islet cells was measured using scintillation proximity assay (SPA).

Row | Structure (SMILES) | pEC50
34 | CC#C[C@@H](CC(=O)O)c1ccc(OC2CCc3cc(-c4cccs4)ccc32)cc1 (stereo partly drawn) [Example 4, (3S)-3-[4-(5-Thiophen-2-yl-indan-1-yloxy)-phenyl]-hex-4-ynoic acid] | > 6.00
35 | CC#C[C@@H](CC(=O)O)c1ccc(OC2CCc3c(-c4cccc(OCC)c4)cccc32)cc1 (stereo partly drawn) [Example 9, (3S)-3-{4-[4-(3-Ethoxy-phenyl)-indan-1-yloxy]-phenyl}-hex-4-ynoic acid] | > 6.00
